The text below walks through data of a melting point compilation (Tetko et al.; mined from patent text by program, amines drawn as free bases though some values may be those of a salt).

Some results are limits rather than exact numbers.

Regarding `CC(Cc1ccc(CCNS(=O)(=O)c2ccccc2)cc1)C(=O)O` (stereo not given), the melting point lay in the range of 113 to 115 °C.

Take `CC(=O)OC1CSC(Oc2ccc(C#N)nc2C)C(OC(C)=O)C1OC(C)=O` (stereo not given): the melting point fell in the range of 128 to 131 °C.

In turn, `CCCC(c1cc(C(=O)O)ccc1OCc1ccc(Br)cc1)n1ccnc1` (stereo not given) showed a melting point of 187 to 189 °C.

For `Cc1ccnc(SCc2nccc(SCCCSc3ccc4ncc([N+](=O)[O-])n4n3)c2C)n1`, the melting point lay within 136 to 138 °C.

The compound `CCCCc1csc2ccc3[nH]c4c(c3c12)CN(C)CC4` had a melting point of 192 to 193 °C.

Compound `O=c1[nH]c(=O)c2c(N3CCCCC3)cccc2[nH]1` showed a melting point greater than 280 °C.

In turn, `Oc1ncc(-c2ccccc2)cn1` displayed a melting point of 239 to 241 °C.

`O=C(NC1CCCCC1)c1c(O)c2cccnc2n(Cc2ccccc2)c1=O` returned a melting point of 143 °C.

Compound `CC(C)NC(=O)N1CCc2[nH]cnc2C1` showed a melting point of 190 °C.

For `COc1ccc(C2(C)CCc3cc(OC)ccc3C2CCCCCCO)cc1` (stereo not given), the melting point lay within 76 to 83 °C.

`Cc1ccc2c(c1)C(=O)C(C#N)C2=O` (stereo not given) came in with a melting point of 176 to 178 °C.

Consider `CC(C)COC1OC(CO)C(O)C(O)C1(O)N(C(=O)N(CCCl)N=O)C1CCCCC1` (stereo not given), for which the melting point fell in the range of 87 to 89 °C.

Compound `[N-]=[N+]=NC1CCc2ccccc2C1NC(=O)OCc1ccccc1` (stereo not given) showed a melting point of 104 °C.

As to `Cc1cccc(-c2[nH]c(C(C)C)nc2-c2cccc(-c3ccc(C(N)=O)cn3)c2)n1`, the melting point was 138 to 144 °C.

`CCCC1=C(C#N)C(c2ccccc2Cl)c2c(n[nH]c2C)N1` (stereo not given) gave a melting point of 260 °C.

On to `Cc1cc(C)c(C)c(C(=O)CCl)c1C`, for which the melting point worked out at 65.5 °C.

With `CCCc1c(C(=O)C(C)C)c2ccc(C(=O)O)cc2n1Cc1ccccc1I`, the melting point turned out to be 210 °C.

Compound `Cn1ccnc1SCC(=O)C12CC3CC(CC(C3)C1)C2` registered a melting point of 65 to 69 °C.

Regarding `COc1nc2ccccc2n(-c2ccc(Cl)cc2)c1=O`, the melting point lay in the range of 245 to 247 °C.

In turn, `COC(=O)CCCC(=O)c1ccccc1C=CBr` yielded a melting point of 52 to 55 °C.

`CCC12CCC3C4CCC(=O)C=C4CCC3C1CCC2(O)C(C)O` (stereo not given): the melting point was 159 to 164 °C.

Regarding `CCCCCCCCCc1ccc(C(Sc2cccc(NC(=O)CC(=O)O)c2)C(=O)CCCC(=O)O)cc1` (stereo not given), the melting point is 88 to 91 °C.

With `CC(=O)N(C)c1cc(-c2ccnc3c(C(=O)c4cccs4)cnn23)ccc1F`, the melting point was in the range of 165 to 167 °C.

The compound `Cc1cc(CCc2cc(O)c(=O)[nH]n2)ccc1C(F)(F)F` returned a melting point of 174 to 175 °C.

The compound `CN(CCCCC(=O)O)c1ccc(Br)cc1C=O` yielded a melting point of 72 to 73 °C.

For `O=C(Nc1c(F)cccc1F)c1ccc(-n2nc(C(F)(F)F)cc2C2CC2)cc1`, the melting point lay in the range of 145 to 147 °C.

As for `COC(=O)[C@]1(OS(C)(=O)=O)C[C@H](CC(C)C)[C@@H]2O[C@@H]2C1`, the melting point lay within 120 to 121 °C.

`CN1C(=O)CSc2c(NCc3cccc(OCc4ccc5ccccc5n4)c3)cccc21` gave a melting point of 102 to 104 °C.

For the compound `CC(C)Oc1cc(CCCOc2ncccc2CC(=O)O)n(Cc2ccc(Cl)cc2OC(C)C)n1`, the melting point lay within 82 to 84 °C.

`CCOC(=O)c1c[nH]c2oc3ccccc3c(=O)c2c1=O` had a melting point of 174 to 175 °C.

`N#CC(=O)c1ccccc1CF`: the melting point turned out to be 41 °C.

As to `CC(=O)NC[C@H]1CN(c2ccc(C(=O)c3cnc4c(Cl)cc(Cl)cn34)cc2)C(=O)O1`, the melting point was 228 to 229 °C.

As to `CC(C)(C)OC(=O)N1CCC(OCc2ccccc2)C1CC(=O)Cn1cnc2ccc(F)c(F)c2c1=O` (stereo not given), the melting point was 211 °C.

In turn, `COC(=O)CNCCNC(=O)c1nc(Cl)c(N)nc1N` gave a melting point of 145 to 146 °C.

Compound `CCOC(=O)C1=C(C)Nc2nc(N3CCOCC3)nc(N3CCOCC3)c2C1c1cccs1` (stereo not given) showed a melting point of 205 °C.
